The values that follow come from patent publication US8058242B2, “Chimeric proteins with natriuretic activity” (The University of Queensland, priority 2004, dated 2011).

Positions of bridges follow the written chain, without caps; N, C: chain ends. Non-standard residues stand in square brackets, D forms with d. Residues, ends and D or L forms follow the SMILES beside them. No end group written: not given here. pGlu = O=C1CC[C@@H](C(=O)O)N1; Sec = N[C@@H](C[SeH])C(=O)O

Experiment [1] deals with denuded aortic rings, GC A receptor. Description: Relaxation of noradrenaline constricted endothelium-denuded aortic rings (Example 11). Details: species or system rat. As to conditions: GC-A mediated. On the procedure: Male Sprague Dawley rats were killed and the descending thoracic aorta rapidly removed and flushed with physiological solution. After being cleared of adhering fat and connective tissue, 5 mm rings were mounted under 10 g resting tension, between two stainless steel hooks, in organ baths (37° C.) containing carbogenated (95% O2 and 5% CO2) physiological salt solution of the following composition (mM): NaCl, 118.4; NaHCO3, 25; glucose, 11; KCl, 4.7; MgSO4, 1.2; KH2PO4, 1.2 and CaCl2, 2.5. The lower hook was attached to a tissue holder and the upper hook to a force displacement transducer (Grass FTO3). Where indicated endothelial cells were removed by gentle rubbing of the intimal surface with a wire. To confirm the presence or absence of endothelial cells, tissues were precontracted with a sub-maximal concentration of phenylephrine (0.3 μM) and the response to acetylcholine (ACh, 10 μM) observed. Ach-induced relaxation greater than 80% of maximum indicated the presence of endothelium; whereas Ach-induced relaxation less than 10% indicated the absence of endothelium. Ring preparations under resting tension were conditioned by two contraction/relaxation cycles with 40 mM KCl, contracted by a third application of 40 mM KCl and then relaxed with different doses of the venom peptides. Responses were expressed as a percentage relaxation of the precontraction by KCl.
In addition to the peptides tested in example 3, a series of 13 analogs corresponding to the 2a, 2b and 2c grouping of peptides were examined for their ability to dilate noradrenaline constricted aortic rings. The degree of constriction was expressed as a percentage of the KCl induced constriction. The aortic rings were prepared in a manner similar to the method described in example 3. […]. In each case there were at least 3 separate aortic rings tested per peptide and all were denuded of endothelium to ensure responses were confined to the GC A receptor.

The target in experiment [2] is T1, Natriuretic Peptide Receptor-A (NPR-A) signaling in MDCK cells (Canis lupus familiaris, UniProt A0A8I3MHU3).
T1 sequence (A0A8I3MHU3 32-1060): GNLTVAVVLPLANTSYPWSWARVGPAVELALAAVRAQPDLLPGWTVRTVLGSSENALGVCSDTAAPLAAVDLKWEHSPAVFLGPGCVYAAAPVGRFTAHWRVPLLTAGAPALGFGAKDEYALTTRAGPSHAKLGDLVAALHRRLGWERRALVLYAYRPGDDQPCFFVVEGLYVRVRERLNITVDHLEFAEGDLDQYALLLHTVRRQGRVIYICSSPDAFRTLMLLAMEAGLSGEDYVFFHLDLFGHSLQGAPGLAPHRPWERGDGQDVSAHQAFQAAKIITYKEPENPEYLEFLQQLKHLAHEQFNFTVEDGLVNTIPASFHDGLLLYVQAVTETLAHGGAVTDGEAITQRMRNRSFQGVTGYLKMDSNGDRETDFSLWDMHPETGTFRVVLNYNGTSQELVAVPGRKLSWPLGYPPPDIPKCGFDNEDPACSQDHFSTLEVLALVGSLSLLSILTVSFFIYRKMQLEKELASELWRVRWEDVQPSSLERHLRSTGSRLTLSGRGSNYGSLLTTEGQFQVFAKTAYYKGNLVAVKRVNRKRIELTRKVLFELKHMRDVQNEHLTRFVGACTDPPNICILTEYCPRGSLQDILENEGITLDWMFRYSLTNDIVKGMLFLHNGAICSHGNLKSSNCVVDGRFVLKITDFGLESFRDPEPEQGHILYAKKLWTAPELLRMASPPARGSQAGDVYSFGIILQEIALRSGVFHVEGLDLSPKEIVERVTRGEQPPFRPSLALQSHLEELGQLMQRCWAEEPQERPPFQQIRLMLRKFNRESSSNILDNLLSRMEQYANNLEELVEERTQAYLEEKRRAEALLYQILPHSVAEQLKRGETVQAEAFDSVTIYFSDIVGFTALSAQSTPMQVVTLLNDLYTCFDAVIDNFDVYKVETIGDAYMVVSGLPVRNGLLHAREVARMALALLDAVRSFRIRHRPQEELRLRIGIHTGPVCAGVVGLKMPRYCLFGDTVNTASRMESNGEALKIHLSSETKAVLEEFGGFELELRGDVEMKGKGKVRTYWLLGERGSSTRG
The format is cell-based, canine. The settings on record: stimulation of cGMP accumulation in MDCK cells; for EC50: read-out: EC50 (M) ± Standard Error.

Another experiment concerns conscious rabbits. Description: Blood pressure and heart rate in conscious rabbits, intravenous infusion dose-response (Example 8). The settings on record: for recovery of MAP, in words: 2 hours after infusion.
[3] abbreviates: after a 2 hour recovery period, Table 10B.
Where [4] appears, read: final dose, Table 10B, groups 2B and 2C.
Where [5] appears, read: after 1 hour recovery period, Table 10A.

What is called EC50 is the midpoint of the concentration-response curve. Regarding `CC[C@H](C)[C@H](NC(=O)[C@H](CCCCN)NC(=O)[C@H](CO)NC(=O)[C@H](CC(=O)O)NC(=O)[C@@H](N)CO)C(=O)NCC(=O)N[C@@H](C)C(=O)NCC(=O)N[C@H]1CSSC[C@@H](C(=O)N[C@@H](CC(N)=O)C(=O)N[C@@H](CCCNC(=N)N)C(=O)N[C@H](C(=O)N[C@@H](CCSC)C(=O)N[C@@H](CCC(N)=O)C(=O)N[C@@H](CC(N)=O)C(=O)N2CCC[C@H]2C(=O)N2CCC[C@H]2C(=O)N[C@@H](CCCCN)C(=O)N[C@@H](CCCCN)C(=O)N[C@@H](Cc2ccccc2)C(=O)N[C@@H](CO)C(=O)NCC(=O)N[C@@H](CCC(=O)O)C(=O)O)[C@@H](C)CC)NC(=O)CNC(=O)[C@H](CC(C)C)NC(=O)CNC(=O)[C@H](CO)NC(=O)[C@H](C(C)C)NC(=O)[C@H](CO)NC(=O)CNC(=O)[C@H]([C@@H](C)CC)NC(=O)[C@H](CCCNC(=N)N)NC(=O)[C@H](CC(=O)O)NC(=O)[C@H](CC(C)C)NC(=O)[C@@H]2CCCN2C(=O)[C@H](Cc2ccccc2)NC(=O)CNC(=O)[C@H](Cc2ccccc2)NC1=O` [TNPc A7] (H-SDSKIGAGCFGFPLDRIGSVSGLGCNRIMQNPPKKFSGE-OH; disulfide 9-25; N-terminus assumed), the “Mean relaxation SEM of denuded aortic rings expressed as % of KCl response” value (“Mean relaxation SEM … as % of KCl response” below) in experiment [1] worked out at 32.9 ± 4.5%. Further, in experiment [2], the “−Log10 EC50 (pEC50) ± Standard Error” value is 6.867 ± 0.1915 and the EC50 turned out to be 1.61e-07 M. The “recovery of MAP, in words” value in the experiment on conscious rabbits is listed as “did not recover after 2 hours”. The “MAP at final dose” value in the experiment with conscious rabbits (Table 10B) is 64.0 mm Hg. In addition, in the experiment on conscious rabbits (setting [3]), the “Recovery (MAP)” value was found to be 71.3 mm Hg and the “Recovery Delta SED (MAP)” value is on record as 7.3 ± 2.9 mm Hg. Also, the “Treatment Effect, change of mean blood pressure during the infusion” value (from here on “Treatment Effect, change”) with conscious rabbits (setting [4]) is recorded as −11.2 mm Hg.

For `CC[C@H](C)[C@@H]1NC(=O)[C@H](CCCNC(=N)N)NC(=O)[C@H](CC(=O)O)NC(=O)[C@H](CC(C)C)NC(=O)[C@@H]2CCCN2C(=O)[C@H](Cc2ccccc2)NC(=O)CNC(=O)[C@H](Cc2ccccc2)NC(=O)[C@@H](NC(=O)CNC(=O)[C@H](CO)NC(=O)CNC(=O)[C@H](CCC(N)=O)NC(=O)[C@@H](NC(=O)[C@H](CCSC)NC(=O)[C@H](CCCCN)NC(=O)[C@@H]2CCCN2C(=O)[C@@H](N)CO)C(C)C)CSSC[C@@H](C(=O)N[C@@H](CC(N)=O)C(=O)N[C@@H](CCCNC(=N)N)C(=O)N[C@H](C(=O)N[C@@H](CCSC)C(=O)N[C@@H](CCC(N)=O)C(=O)N[C@@H](CC(N)=O)C(=O)N2CCC[C@H]2C(=O)N2CCC[C@H]2C(=O)N[C@@H](CCCCN)C(=O)N[C@@H](CCCCN)C(=O)N[C@@H](Cc2ccccc2)C(=O)N[C@@H](CO)C(=O)NCC(=O)N[C@@H](CCC(=O)O)C(=O)O)[C@@H](C)CC)NC(=O)CNC(=O)[C@H](CC(C)C)NC(=O)CNC(=O)[C@H](CO)NC(=O)[C@H](C(C)C)NC(=O)[C@H](CO)NC(=O)CNC1=O` [TNPc BTT] (H-SPKMVQGSGCFGFPLDRIGSVSGLGCNRIMQNPPKKFSGE-OH; disulfide 10-26; N-terminus assumed), in experiment [1], the “Mean relaxation SEM … as % of KCl response” value came to 62.1 ± 6.6%. In experiment [2], the “−Log10 EC50 (pEC50) ± Standard Error” value is listed as 8.177 ± 0.1049 and the half-maximal effective concentration (EC50) came out at 7.06e-09 M. The “recovery of MAP, in words” value in the experiment with conscious rabbits is “did not recover after 2 hours”. Moreover, the “MAP at final dose” value in the experiment on conscious rabbits (Table 10B) came to 63.4 mm Hg. Also, in the experiment with conscious rabbits (setting [3]), the “Recovery (MAP)” value is on record as 65.4 mm Hg and the “Recovery Delta SED (MAP)” value stood at 2.1 ± 1.5 mm Hg. The “Treatment Effect, change” value in the experiment with conscious rabbits (setting [4]) is given as −10.8 mm Hg.

Regarding “SDSKIGNGCFGFPLDRIGSVSGLGCNRPMQNPPKKFSGE (A portion of a natriuretic peptide) [TNPc I28P]”, the “Mean relaxation SEM … as % of KCl response” value in experiment [1] was 52.6 ± 5.0%. Also, in the experiment on conscious rabbits (setting [5]), the “Recovery (MAP)” value is reported as 66.6 mm Hg and the “Recovery Delta SED (MAP)” value was 1.2 ± 2.4 mm Hg. The “reduction of MAP compared to vehicle, in words” value in the experiment on conscious rabbits (highest dose) was “did significantly reduce MAP”. Moreover, the “MAP at final dose” value in the experiment on conscious rabbits (highest dose, Table 10A) was 65.4 mm Hg. Also, the “Treatment Effect, change” value in the experiment on conscious rabbits (highest dose, Table 10A, groups 1, 2A and 3) is on record as −9.1 mm Hg. Further, in the experiment on conscious rabbits (one hour after the end of infusion), the “recovery of MAP from the hypotension, in words” value was “did recover from the hypotension”.

In the case of “SDSKIGNGUFGFPLDRIGSVSGLGUNRIMQNPPKKFSGE (SDSKIGNG[Sec]FGFPLDRIGSVSGLG[Sec]NRIMQNPPKKFSGE; ends and bridges not checked) [TNPc diseleno]”, in experiment [1], the “Mean relaxation SEM … as % of KCl response” value came to 60.5 ± 9.6%. For the same compound, the “recovery of MAP, in words” value in the experiment on conscious rabbits is recorded as “did not recover after 2 hours”. For the same compound, the “MAP at final dose” value with conscious rabbits (Table 10B) is listed as 61.0 mm Hg. In addition, in the experiment with conscious rabbits (setting [3]), the “Recovery (MAP)” value came out at 65.8 mm Hg and the “Recovery Delta SED (MAP)” value is on record as 4.8 ± 0.3 mm Hg. In addition, the “Treatment Effect, change” value with conscious rabbits (setting [4]) was −12.6 mm Hg.

Regarding “SDSKISAGCFGFPLDRIGSVSGLGCNRIMQNPPKKFSGE (A portion of a natriuretic peptide) [TNPc A7S6]”, the “Mean relaxation SEM … as % of KCl response” value in experiment [1] was 43.1 ± 8.6%. Moreover, the “recovery of MAP, in words” value in the experiment on conscious rabbits is “partially recovered”. For the same compound, the “MAP at final dose” value in the experiment with conscious rabbits (Table 10B) turned out to be 56.3 mm Hg. In addition, in the experiment with conscious rabbits (setting [3]), the “Recovery (MAP)” value was determined as 66.8 mm Hg and the “Recovery Delta SED (MAP)” value is given as 10.5 ± 3.1 mm Hg. Moreover, the “Treatment Effect, change” value in the experiment on conscious rabbits (setting [4]) is recorded as −12.9 mm Hg.

Turning to “SDSKISKGCFGFPLDRIGSVSGLGCNRIMQNPPKKFSGE (A portion of a natriuretic peptide) [TNPc K7S6]”, the “Mean relaxation SEM … as % of KCl response” value in experiment [1] amounted to 43.8 ± 4.3%. In addition, in the experiment on conscious rabbits, the “recovery of MAP, in words” value is “did not recover after 2 hours”. Further, the “MAP at final dose” value in the experiment with conscious rabbits (Table 10B) turned out to be 60.3 mm Hg. Also, in the experiment on conscious rabbits (setting [3]), the “Recovery (MAP)” value is reported as 64.2 mm Hg and the “Recovery Delta SED (MAP)” value is 3.9 ± 2.6 mm Hg. For the same compound, the “Treatment Effect, change” value with conscious rabbits (setting [4]) is recorded as −12.6 mm Hg.

Consider “ZSDSKIGNGCFGFPLDRIGSVSGLGCNRIMQNPPKKFSGE ([pGlu]SDSKIGNGCFGFPLDRIGSVSGLGCNRIMQNPPKKFSGE; disulfide 10-26 (inferred); not fully specified; ends not checked) [TNPc Z0]”, for which the “Mean relaxation SEM … as % of KCl response” value in experiment [1] is 61.5 ± 5.5%. Also, the “recovery of MAP, in words” value with conscious rabbits is given as “partially recovered”. The “MAP at final dose” value in the experiment with conscious rabbits (Table 10B) is reported as 63.3 mm Hg. For the same compound, in the experiment with conscious rabbits (setting [3]), the “Recovery (MAP)” value was found to be 72.2 mm Hg and the “Recovery Delta SED (MAP)” value is on record as 9.0 ± 1.0 mm Hg. In addition, the “Treatment Effect, change” value in the experiment on conscious rabbits (setting [4]) was −11.0 mm Hg.
